The values that follow come from publication PMC8891364, “Synthesis, and docking studies of novel heterocycles incorporating the indazolylthiazole moiety as antimicrobial and anticancer agents” (Scientific Reports, 2022).

The structures appear in SMILES notation. ≈ marks a conversion by molar mass, not a printed value.

Data set [1] concerns Streptococcus mutans ATCC 25175. Briefly: Antimicrobial microtiter-plate MIC assay. In kind it is cell-based. The conditions noted are these: for MIC Streptococcus mutant: 24 h, 37 °C; for MIC: Streptococcus mutans, ATCC25175, 24 h, read-out: MIC Streptococcus mutant. As to the method:
(§1) The antimicrobial activity of the newly synthesized compounds (2–9) was evaluated against three model pathogenic microorganisms as follows: Streptococcus mutans ATCC 25175 (Gram-positive bacterium); Pseudomonas aeruginosa ATCC 27853 (Gram-negative bacterium); and Candida albicans ATCC 10231 (fungi-like unicellular organism). After cultivating the three tested pathogens overnight in LB broth, 100 µL of each tested organism (10^6 CFU/mL) was added separately to 100 µL of the serially diluted test compounds (5–80 µg) in a 96-well tissue culture plate and incubated at 37 °C for 24 h. Eventually, microbial growth was measured at 600 nm, and the results are presented in the form of MIC (Table 4). Two antibacterial reference drugs, ampicillin and ciprofloxacin, and one antifungal drug, clotrimazole, were incorporated into the experiments.

For data set [2], the system named is Pseudomonas aeruginosa ATCC 27853. The data set can be described thus: Antimicrobial microtiter-plate MIC assay. Type of data set: cell-based. The note with it: 24 h, 37 °C; for MIC: Pseudomonas aeruginosa, ATCC27853. As to the method:
as §1

The subject of data set [3] is Candida albicans ATCC 10231. Briefly: Antimicrobial microtiter-plate MIC assay. Type of data set: cell-based. The note with it: 24 h, 37 °C; for MIC: Candida albicans, ATCC10231. As to the method:
as §1

The test system of the next data set is HFB-4 cells. Briefly: MTT cytotoxicity assay, normal human melanocytes. Type of data set: cell-based. The conditions noted are these: 48 h; for IC50: Melanocyte. As to the method: (§2) The human melanocytes (HFB-4) cells, hepatoma (HepG-2) cells, and colon carcinoma (Caco-2) cells were obtained from American Type Culture Collection (ATCC, USA). The cytotoxicity of the newly synthesized compounds (at various concentrations) was determined using the 3-[4, 5-dimethylthiazol]-2, 5-diphenyltetrazolium bromide method (MTT assay)[59] against HFB-4 cells (normal human melanocytes), HepG-2 cells (hepatoma), and Caco-2 cells (colon carcinoma). Normal and cancer cells (1.0 × 10^4) were cultured in sterile 96-well microplates, and incubated for 24 h in DMEM (Lonza, USA) supplemented with 10% fetal bovine serum (Gibco, USA) for HFB-4 and Caco-2 cells or in an RPMI-1640 medium (Lonza, USA) supplemented with 10% FBS for HepG-2 cells. After 24 h of incubation, different doses of the tested synthesized compounds ([…]) were added in triplicate to all cells and incubated for another 48 h in 5% CO2. After washing the cells 3 times with fresh media, to remove dead cells and debris, a solution of MTT (Sigma -Aldrich, 0.5 mg/mL) was added to each well and further incubated for 2–5 h at 37 °C. Afterward, the MTT solution was decanted and 200 µL of DMSO was added. The optical density was measured at 570 nm using a microplate reader (BMG LabTech, Germany), where the cells’ relative viability (%) was estimated using the following equation: viability of cells (%) = [A1 − A0/AU − A0] × 100, where A1 is the absorbance of the test compound, A0 is the absorbance of the blank, and AU is the absorbance of untreated cells (control).
(§3) The antitumor activity of the synthesized compound was determined by calculating the IC50 value (half maximal inhibitory concentration) using Graph Pad Prism 6.0 software. The value of IC50 indicates the derivative concentration that causes 50% cell death, whereas the value of the selectivity index (SI), indicating the ratio of the IC50 value of normal cells versus the IC50 value of tumor cells, was also included as reported by[60],[61].
In general terms: Tetrazolium dyes change colour on reduction, which living cells bring about.

A further data set deals with HepG-2 cells. The data set can be described thus: MTT antitumor assay, hepatoma cells. In kind it is cell-based, human. The note with it: for SI HepG-2: ratio of IC50 of normal cells (HFB-4) versus IC50 of tumor cells; for IC50: Homo sapiens, HepG2, 48 h. The procedure: as §2, §3
A further data set relates to Caco-2 cells. Briefly: MTT antitumor assay, colon carcinoma cells. Type of data set: cell-based. The conditions noted are these: for SI Caco-2: ratio of IC50 of normal cells (HFB-4) versus IC50 of tumor cells; for IC50: Homo sapiens, Caco-2, 48 h. As to the method: as §2, §3
The test system of another data set is Pseudomonas aeruginosa. Briefly: Microbial-biofilm inhibition, tissue-culture plate technique (TCP). In kind it is cell-based. The conditions noted are these: 25 µg/mL, 24 h. The procedure:
(§4) The activity of the newly synthesized compounds against microbial biofilm formation was estimated through the tissue-culture plate technique (TCP) as follows: the three above-mentioned pathogens, Streptococcus mutans, Pseudomonas aeruginosa, and Candida albicans were cultivated overnight in LB broth at 37 °C. Afterward, 200 µL of each diluted organism (10^6 CFU/mL) was inoculated separately (in triplicate) into 96-well tissue culture plates and incubated overnight at 37 °C. The free planktonic cells were removed, after the incubation period, by flipping the plate and washing each well three times with phosphate-buffered-saline (PBS), pH 7.1. To each well, 175 µL of fresh LB broth was added along with 25 µL of the tested compound (25 µg/mL final concentrations). The plates were reincubated at 37 °C for another 24 h, washed with PBS buffer pH 7.1 three times, and dried for 5 min at 50 °C. The formed biofilm was stained with crystal violet solution (0.1% w/v) for 5 min. The excess stain was decanted, and the stained biofilm was solubilized with 200 µL of glacial acetic acid (30% v/v), where the developed blue color was measured at 590 nm. The results are expressed as relative inhibition (%) compared to untreated groups (control). Controls were prepared by culturing the three pathogens on LB medium without any tested compounds.

The subject of another data set is Candida albicans. The data set is described as above. In kind it is cell-based. The note with it: Candida albicans, 24 h, relative to untreated. As to the method: as §4

Regarding `CC1(C)S[C@@H]2[C@H](NC(=O)[C@H](N)c3ccccc3)C(=O)N2[C@H]1C(=O)O` [Ampicillin, ampicillin, reference compound], in data set [1], the “MIC Streptococcus mutant” value worked out at 13.5 ± 0.234 µg/mL (≈ 38.6 µM) and the MIC (usually the least concentration at which growth counts as inhibited) turned out to be 13.5 µg/mL (≈ 38.6 µM).

For `O=C(O)c1cn(C2CC2)c2cc(N3CCNCC3)c(F)cc2c1=O` [Ciprofloxacin, ciprofloxacin, reference compound], in data set [2], the “MIC Pseudomonas aeruginosa” value turned out to be 18.7 ± 0.475 µg/mL (≈ 56.4 µM) and it took 18.7 µg/mL (≈ 56.4 µM) to inhibit growth (MIC).

Consider `Clc1ccccc1C(c1ccccc1)(c1ccccc1)n1ccnc1` [Clotrimazole, clotrimazole, reference compound], for which the minimum inhibitory concentration (MIC) in data set [3] is 14.5 ± 1.25 µg/mL (≈ 42 µM).

For the molecule `NS(=O)(=O)c1ccc(Nc2csc(N3NC4=C(CCCC4)C3c3ccccc3)n2)cc1` (stereo not shown) [Compound 2], the “IC50 HFB-4” value in the data set on HFB-4 cells was found to be 110.8 ± 1.54 µg/mL (≈ 244 µM). In addition, the “IC50 HepG-2” value in the data set on HepG-2 cells (MTT, 48 h) is 6.37 ± 0.36 µg/mL (≈ 14 µM). Further, the “SI HepG-2” value with HepG-2 cells is 17.39 ± 0.24. Also, in the data set with Caco-2 cells (MTT, 48 h), the “IC50 Caco-2” value is 6.06 ± 1.26 µg/mL (≈ 13.4 µM). In the data set on Caco-2 cells, the “SI Caco-2” value is reported as 18.28 ± 0.25. Further, in data set [3], the “MIC Candida albicans” value was 52.77 ± 0.7862 µg/mL (≈ 116 µM). Besides, the “MIC Pseudomonas aeruginosa” value in data set [2] was determined as 40.13 ± 2.109 µg/mL (≈ 88.5 µM). For the same molecule, in data set [1], the “MIC Streptococcus mutant” value was found to be 49.71 ± 0.5849 µg/mL (≈ 110 µM). In addition, in the data set with Pseudomonas aeruginosa, the “biofilm inhibition activity Pseudomonas aeruginosa (in words)” value was “high biofilm inhibition activity”. For the same molecule, the “biofilm inhibition Pseudomonas aeruginosa” value in the data set on Pseudomonas aeruginosa (relative to untreated) is “approximately 58.5%”.

On to `N#Cc1c(N)sc2sc(N3NC4=C(CCCC4)C3c3ccccc3)nc12` (stereo not shown) [Compound 5, 5-amino-2-(3-phenyl-1,3,4,5,6,7-hexahydro-2H-indazol-2-yl)thieno[3,2-d]thiazole-6-carbonitrile], for which the IC50 (in general, the concentration at which inhibition is half-maximal) with HFB-4 cells was 97.7 ± 2.41 µg/mL (≈ 257 µM); in the data set on HepG-2 cells (MTT, 48 h), 7.57 ± 0.36 µg/mL (≈ 19.9 µM); in the data set on Caco-2 cells (MTT, 48 h), 7.59 ± 0.24 µg/mL (≈ 20 µM). Besides, the “SI HepG-2” value in the data set with HepG-2 cells was found to be 12.90 ± 0.32. For the same molecule, the “SI Caco-2” value in the data set on Caco-2 cells was found to be 12.87 ± 0.32. Also, the results for the minimal inhibitory concentration (MIC) in data set [3], in data set [2] and in data set [1] were 59 ± 1.28 µg/mL (≈ 156 µM), 56.5 ± 2.19 µg/mL (≈ 149 µM) and 43.52 ± 0.359 µg/mL (≈ 115 µM), respectively. 25 µg/mL produced 68% inhibition with Candida albicans. The “biofilm inhibition activity Pseudomonas aeruginosa (in words)” value in the data set on Pseudomonas aeruginosa is on record as “high biofilm inhibition activity”.

For the molecule `N=C1CC(=O)Oc2nc(N3NC4=C(CCCC4)C3c3ccccc3)sc21` (stereo not shown) [Compound 7, 7-imino-2-(3-phenyl-1,3,4,5,6,7-hexahydro-2H-indazol-2-yl)-6,7-dihydro-5H-pyrano [2,3-d]thiazol-5-one], the IC50 in the data set on HFB-4 cells stood at 105 ± 6.2 µg/mL (≈ 286 µM); in the data set on HepG-2 cells (MTT, 48 h), 9.53 ± 0.32 µg/mL (≈ 26 µM); with Caco-2 cells (MTT, 48 h), 9.2 ± 0.27 µg/mL (≈ 25.1 µM). The “SI HepG-2” value in the data set on HepG-2 cells is recorded as 10.99 ± 0.65. Moreover, in the data set with Caco-2 cells, the “SI Caco-2” value is listed as 11.39 ± 0.67. Besides, the results for the minimal inhibitory concentration (MIC) in data set [3], in data set [2] and in data set [1] were 58.2 ± 1.21 µg/mL (≈ 159 µM), 43.9 ± 2.04 µg/mL (≈ 120 µM) and 22.4 ± 0.317 µg/mL (≈ 61.2 µM), respectively. Further, the inhibition – broadly, the relative decrease from the control value, in per cent – at 25 µg/mL in the data set with Candida albicans worked out at 66%.

As for `CCOC(=O)C1=C2N=C(N3NC4=C(CCCC4)C3c3ccccc3)SC2C(=S)S1` (stereo not shown) [Compound 9, ethyl 2-(3-phenyl-1,3,4,5,6,7-hexahydro-2H-indazol-2-yl)-6-thioxo-6,6a-dihydrothieno [3,4-d]thiazole-4-carboxylate], the IC50 in the data set with HFB-4 cells is 65.65 ± 0.29 µg/mL (≈ 148 µM); in the data set on HepG-2 cells (MTT, 48 h), 5.23 ± 0.25 µg/mL (≈ 11.8 µM); in the data set with Caco-2 cells (MTT, 48 h), 5.95 ± 0.1 µg/mL (≈ 13.4 µM). In the data set with HepG-2 cells, the “SI HepG-2” value stood at 12.55 ± 0.06. In addition, the “SI Caco-2” value in the data set with Caco-2 cells is listed as 11.04 ± 0.05. Further, the minimal inhibitory concentration (MIC) worked out at 46.6 ± 1.2 µg/mL (≈ 105 µM) in data set [3], 61.5 ± 1.83 µg/mL (≈ 139 µM) in data set [2] and 48.77 ± 0.246 µg/mL (≈ 110 µM) in data set [1]. In addition, the inhibition at 25 µg/mL with Candida albicans is roughly 79%.
